Experimental data taken from ChEMBL document CHEMBL5532696, “Discovery of new tricyclic spiroindole derivatives as potent P-glycoprotein inhibitors for reversing multidrug resistance enabled by a synthetic methodology-based library” (RSC Med Chem, 2024).

What was measured:
[1] = system: Eca-109/VCR; test: Reversal of vincristine resistance in human Eca-109/VCR cells assessed as reversal fold by measuring ratio of vincristine IC50 to vincristine IC50 in presence of test compound at 5 uM incubated for 48 hrs by CCK8 assay; type: functional
[2] = system: Eca-109/VCR; test: Antiproliferative activity against human Eca-109/VCR cells assessed as cell viability at 5 uM incubated for 48 hrs by CCK-8 assay (reference value: 100 +/- 1.8%); type: functional; conditions: read-out: Activity
[3] = system: Eca-109/VCR; test: Induction of apoptosis in human Eca-109/VCR cells assessed as late apoptotic cells at 5 uM incubated for 48 hrs in presence of vincristine at 50 nM by Annexin V-FITC/DAPI staining based flow cytometry analysis (reference value: 5.06 %); type: functional
[4] = system: Eca-109/VCR; test: Induction of apoptosis in human Eca-109/VCR cells assessed as late apoptotic cells at 5 uM incubated for 48 hrs by Annexin V-FITC/DAPI staining based flow cytometry analysis (reference value: 4.31 %); type: functional
[5] = system: Eca-109/VCR; test: Induction of apoptosis in human Eca-109/VCR cells assessed as necrotic cells at 5 uM incubated for 48 hrs in presence of vincristine at 50 nM by Annexin V-FITC/DAPI staining based flow cytometry analysis (reference value: 0.062 %); type: functional
[6] = system: Eca-109/VCR; test: Induction of apoptosis in human Eca-109/VCR cells assessed as early apoptotic cells at 5 uM incubated for 48 hrs in presence of vincristine at 50 nM by Annexin V-FITC/DAPI staining based flow cytometry analysis (reference value: 1.33 %); type: functional
[7] = system: Eca-109/VCR; test: Induction of apoptosis in human Eca-109/VCR cells assessed as viable cells at 5 uM incubated for 48 hrs by Annexin V-FITC/DAPI staining based flow cytometry analysis (reference value: 94.6 %); type: functional; conditions: read-out: Activity
[8] = system: Eca-109/VCR; test: Induction of apoptosis in human Eca-109/VCR cells assessed as early apoptotic cells at 5 uM incubated for 48 hrs by Annexin V-FITC/DAPI staining based flow cytometry analysis (reference value: 0.97 %); type: functional
[9] = system: Eca-109/VCR; test: Induction of apoptosis in human Eca-109/VCR cells assessed as viable cells at 5 uM incubated for 48 hrs in presence of vincristine at 50 nM by Annexin V-FITC/DAPI staining based flow cytometry analysis (reference value: 93.5 %); type: functional; conditions: read-out: Activity
[10] = system: Eca-109/VCR; test: Induction of apoptosis in human Eca-109/VCR cells assessed as necrotic cells at 5 uM incubated for 48 hrs by Annexin V-FITC/DAPI staining based flow cytometry analysis (reference value: 0.073 %); type: functional
[11] = system: ECa-109 cell line; test: Antiproliferative activity against human Eca-109 cells assessed as reduction in cell viability incubated for 48 hrs by CCK-8 assay; type: functional, cell-based; conditions: ECa-109, 48 h
[12] = system: Eca-109/VCR; test: Reversal of vincristine resistance in human Eca-109/VCR cells assessed as reduction in cell viability incubated for 48 hrs by CCK-8 assay; type: functional, cell-based

Compound	Ratio IC50 [1]	viability at 5 µM [2] [%]	further results
CCOC(=O)C1C2c3ccc([N+](=O)[O-])cc3C(=O)C2C(c2ccccc2)C12C(=O)N(C)c1c(C)cc(C)cc12 (stereo unspecified)	2.3	89.7	
CCOC(=O)C1C2c3ccc([N+](=O)[O-])cc3C(=O)C2C(C2CC2)C12C(=O)N(C)c1ccccc12 (stereo unspecified)	2.5	96.2	
COc1ccc(CCN(C)CCCC(C#N)(c2ccc(OC)c(OC)c2)C(C)C)cc1OC (stereo unspecified) [VERAPAMIL]	107.9	98.9	Activity [3]: 3.93%; Activity [4]: 3.05%; Activity [5]: 0.32%; Activity [6]: 12.1%; viability at 5 µM [7]: 94%; Activity [8]: 2.86%; viability at 5 µM [9]: 83.6%; Activity [10]: 0.049%
O=C1c2cc([N+](=O)[O-])ccc2C2C1C(c1ccccc1)C1(C(=O)c3ccccc3C1=O)C2c1ccccc1 (stereo unspecified)	57.1	96.6	
CS(=O)(=O)CCNCc1ccc(-c2ccc3ncnc(Nc4ccc(OCc5cccc(F)c5)c(Cl)c4)c3c2)o1 [LAPATINIB]			IC50 [11]: 9.16 µM; IC50 [12]: 6.69 µM
CC(=O)O[C@@]12CO[C@@H]1C[C@H](O)[C@@]1(C)C(=O)[C@H](O)C3=C(C)[C@@H](OC(=O)[C@H](O)[C@@H](NC(=O)OC(C)(C)C)c4ccccc4)C[C@@](O)([C@@H](OC(=O)c4ccccc4)[C@H]21)C3(C)C [DOCETAXEL ANHYDROUS]			IC50 [11]: 0.773 µM; IC50 [12]: 9.73 µM
CCOC(=O)C1C2c3ccc([N+](=O)[O-])cc3C(=O)C2C(c2ccco2)C12C(=O)N(C)c1ccccc12 (stereo unspecified)	12.7	102	
CN1C(=O)C2(c3ccccc31)C(C(=O)OC(C)(C)C)C1c3ccc([N+](=O)[O-])cc3C(=O)C1C2c1ccccc1 (stereo unspecified)	56.1	103	
COc1cc2c(cc1OC)CN(CCc1ccc(NC(=O)c3cc(OC)c(OC)cc3NC(=O)c3cnc4ccccc4c3)cc1)CC2 [TARIQUIDAR]	364.3	84.8	Activity [3]: 6.59%; Activity [4]: 3.35%; Activity [5]: 0.68%; Activity [6]: 13.8%; viability at 5 µM [7]: 92.3%; Activity [8]: 4.28%; viability at 5 µM [9]: 79%; Activity [10]: 0.1%
CN1C(=O)C2(c3cc(Cl)ccc31)C(C(=O)NC(C)(C)C)C1c3ccc([N+](=O)[O-])cc3C(=O)C1C2c1ccccc1 (stereo unspecified)	659.1	97.5	
COc1cc2c(c(OC)c1OC)-c1ccc(OC)c(=O)cc1[C@@H](NC(C)=O)CC2 [COLCHICINE]			IC50 [11]: 0.012 µM; IC50 [12]: 3.63 µM
CCOC(=O)C1C2c3c(cccc3[N+](=O)[O-])C(=O)C2C(c2ccccc2)C12C(=O)N(C)c1ccccc12 (stereo unspecified)	10.5	102	
CCOC(=O)C1C2c3ccc([N+](=O)[O-])cc3C(=O)C2C(c2cccc(C)c2)C12C(=O)N(C)c1ccccc12 (stereo unspecified)	56.7	102	
CN1C(=O)C2(c3cccc(Br)c31)C(C(=O)OC(C)(C)C)C1c3ccc([N+](=O)[O-])cc3C(=O)C1C2c1ccccc1 (stereo unspecified)	38.6	99.8	
CCOC(=O)C1C2c3ccc([N+](=O)[O-])cc3C(=O)C2C(c2ccccc2)C12C(=O)N(C)c1ccc(OC)cc12 (stereo unspecified)	16.4	99.4	
O=C1c2cc([N+](=O)[O-])ccc2C2C1C(c1ccccc1)C1(Oc3ccccc3C1=O)C2c1ccccc1 (stereo unspecified)	15.2	99.1	
CCOC(=O)C1C2c3ccc([N+](=O)[O-])cc3C(=O)C2C(c2ccccc2)C12C(=O)N(C)c1ccc(OC(F)(F)F)cc12 (stereo unspecified)	1.7	91.9	
O=C1c2cc([N+](=O)[O-])ccc2C2C1C(c1ccccc1)C([N+](=O)[O-])C2c1ccccc1 (stereo unspecified)	49.9	78.2	
CN1C(=O)C2(c3cc(F)ccc31)C(C(=O)OC(C)(C)C)C1c3ccc([N+](=O)[O-])cc3C(=O)C1C2c1ccccc1 (stereo unspecified)	6.6	101	

Compound	Ratio IC50 [1]	viability at 5 µM [2] [%]	further results
CCOC(=O)C1C2c3ccc([N+](=O)[O-])cc3C(=O)C2C(c2ccccc2)C12C(=O)N(C)c1c(C)cccc12 (stereo unspecified)	38.9	102	
O=C1c2cc([N+](=O)[O-])ccc2C2C1C(c1ccccc1)C1(Cc3ccccc3C1=O)C2c1ccccc1 (stereo unspecified)	34.8	85.2	
CCOC(=O)C1C2c3ccc([N+](=O)[O-])cc3C(=O)C2C(c2ccccc2Br)C12C(=O)N(C)c1ccccc12 (stereo unspecified)	1.8	96.4	
O=C1c2cc([N+](=O)[O-])ccc2C2C1C(c1ccccc1)C(C(=O)c1ccccc1)C2C(F)(F)F (stereo unspecified)		56.3	
CCOC(=O)C1C2c3ccc([N+](=O)[O-])cc3C(=O)C2C(c2ccccc2)C12C(=O)N(C)c1cc(OC)ccc12 (stereo unspecified)	53.2	90.5	
CCOC(=O)C1C2c3ccc([N+](=O)[O-])cc3C(=O)C2C(c2ccc(C)cc2)C12C(=O)N(C)c1ccccc12 (stereo unspecified)	24.7	102	
CCOC(=O)C1C2c3ccc([N+](=O)[O-])cc3C(=O)C2C(c2cccc(OC)c2)C12C(=O)N(C)c1ccccc12 (stereo unspecified)	3	99.7	
CCOC(=O)C1C2c3ccc([N+](=O)[O-])cc3C(=O)C2C(c2ccc(Br)cc2)C12C(=O)N(C)c1ccccc12 (stereo unspecified)	11.7	85.1	
COc1cccc2c1C(=O)c1c(O)c3c(c(O)c1C2=O)C[C@@](O)(C(=O)CO)C[C@@H]3O[C@H]1C[C@H](N)[C@H](O)[C@H](C)O1 [DOXORUBICIN]			IC50 [11]: 2.07 µM; IC50 [12]: 20.2 µM
CCOC(=O)C1C2c3ccc([N+](=O)[O-])cc3C(=O)C2C(c2ccccc2C)C12C(=O)N(C)c1ccccc12 (stereo unspecified)	14.7	92.2	
CN1C(=O)C2(c3cc(Br)ccc31)C(C(=O)OC(C)(C)C)C1c3ccc([N+](=O)[O-])cc3C(=O)C1C2c1ccccc1 (stereo unspecified)	2.9	105	
CN1C(=O)C2(c3ncccc31)C(C(=O)OC(C)(C)C)C1c3ccc([N+](=O)[O-])cc3C(=O)C1C2c1ccccc1 (stereo unspecified)	33.6	104	
CN1C(=O)C2(c3cc(Cl)ccc31)C(C(=O)OC(C)(C)C)C1c3ccc([N+](=O)[O-])cc3C(=O)C1C2c1ccccc1 (stereo unspecified)	388.1	98.2	
CCOC(=O)C1C2c3ccc(-n4cc(-c5ccccc5)nn4)cc3C(=O)C2C(c2ccccc2)C12C(=O)N(C)c1ccccc12 (stereo unspecified)	56.1	98.9	
O=C1c2c(O)ccc(O)c2C(=O)c2c(NCCNCCO)ccc(NCCNCCO)c21 [MITOXANTRONE]			IC50 [11]: 0.646 µM; IC50 [12]: 5.87 µM
COC(=O)C1C(C(=O)c2ccccc2)C(c2ccccc2)C2C(=O)c3cc([N+](=O)[O-])ccc3C12 (stereo unspecified)	12.3	75.2	
CCOC(=O)C1C2c3ccc(Br)cc3C(=O)C2C(c2ccccc2)C12C(=O)N(C)c1ccccc12 (stereo unspecified)	16.7	100	
CCOC(=O)C1C2c3ccc([N+](=O)[O-])cc3C(=O)C2C(c2ccc(C(F)(F)F)cc2)C12C(=O)N(C)c1ccccc12 (stereo unspecified)	39.2	97.9	
CCOC(=O)C1C2c3ccc([N+](=O)[O-])cc3C(=O)C2C(c2ccccc2)C12C(=O)N(C)c1ccccc12 (stereo unspecified)	86.8	102	
